Like-named read-outs stand apart in the source and are kept apart here.
How the values were obtained:
[1] = Cytotoxicity evaluation (cell number in Coulter after 96 hours); assay type: cell-based; settings: human
Description: (§1) The cellular lines utilized in this study were: H9, T lymphocytes, CD4+, permissive for the HIV replication but partially resistant to its cytopathic effect; • H9/IIIB, H9 lymphocytes chronically infected by HTLV/IIIB virus; • MT4 and C8166, T lymphocytes lines, CD4+ permissive for HIV replication. In C8166 the virus induces a cytopathic effect which results in the formation of syncytia easily visible at the optical microscope.
(§2) All the lymphoid lines were cultured in RPMI 1640 containing 10 % of non decomplemented fetal calf serum (FCS), penicillin 100U/mL and streptomycin 100 µg/mL and incubated at 37 °C in 5% CO₂.
(§3) For the cytotoxicity evaluation, the cells were resuspended in a culture medium at a density of 1 x 10⁵/mL, were incubated in the absence or in the presence of various concentration of the compounds to be studied and their number was determined in Coulter after 96 hours of incubation at 37 °C.

HIV-1 [2] = assay: Inhibition of infecting HIV production in MT4 cells (end point titration); assay type: cell-based; settings: for EC90: read-out: ED90 (the source's name); for enhancement of the anti-HIV-1 activity of ddAdo (10 µM): compound used at its MNTD together with ddAdo 10 µM, Fig. 1
Description: as §1, §2
(§4) HIV virus was obtained by H9/IIIB cells surnatant taken at the end of their exponential growth.
(§5) The titre of several stock preparations was comprised between 2 and 5 x 10⁵ Cell Culture Infection Dose 50 (CCID50)/mL.
(§6) For the evaluation of the anti-HIV activity the inhibition of infecting HIV production was determined as follows.
(§7) C8166 or MT4 cells sown at a density of 1 x 10⁶ cells/ml, were infected with a multiplicity of infection (m.o.i.) comprised between 0.05 and 0.02 CCID50/cell. After two hours of incubation at 37 °C and subsequent removal of the inoculum, the cells were washed three times and resuspended at a density of 1 x 10⁵ cells/ml. in the absence or in the presence of the compounds to be investigated.
(§8) After 4 days of incubation at 37 °C the presence of syncytia was evaluated at the optical microscope and the quantity of infecting HIV present in the surnatant of the cultures was determined by end point titration.
(§9) HIV titration was carried out in C8166 cells sown at a density of 1 x 10⁵ cells/mL/well, by the limit dilution method (dilution ratio 1:2, every dilution being sown in quadruplicate).
(§10) After four days of incubation, the syncytia presence was evaluated at the microscope and the viral titre was calculated by the Reed and Muench method.

HIV-1 [3] = assay: Inhibition of infecting HIV production in C8166 cells (end point titration); assay type: cell-based; settings: for EC90: read-out: ED90 (the source's name)
Description: as §1, §2, §4, §5, §6, §7, §8, §9, §10

MT4 cells = assay: Cytotoxicity evaluation (cell number in Coulter after 96 hours); assay type: cell-based
Description: as §1, §2, §3

C8166 cells = assay: as above; assay type: cell-based; settings: C8166 cells; concentrations up to 500 µM
Description: as §1, §2, §3

human T lymphocytes = settings: G. Ahluwalia et al. 1987; cited from earlier work
[4] = MT4 cells, compound alone, Table 2
[5] = C8166 cells, compound alone, Table 2
[6] = MT4 cells, concentrations up to 500 µM
[7] = c8166 cells, maxima non cytotoxic doses (MNTD)
[8] = mt4 cells, maxima non cytotoxic doses (MNTD)
[9] = ddAdo alone (EHNA absent), C8166, Table 3
[10] = ddAdo alone (Coformycin absent), MT4, Table 4
[11] = ddAdo alone (desoxycoformycin absent), MT4, Table 5
[12] = ddAdo with Coformycin 0.02 (unit not given), MT4
[13] = ddAdo with Coformycin 0.06 (unit not given), MT4
[14] = ddAdo with Coformycin 0.2 (unit not given), MT4
[15] = ddAdo with Coformycin 0.5 (unit not given), MT4
[16] = ddAdo with Coformycin 1.6 (unit not given), MT4
[17] = ddAdo with Coformycin 5 (unit not given), MT4
[18] = ddAdo with Coformycin 15 (unit not given), MT4
[19] = ddAdo with Coformycin 45 (unit not given), MT4
[20] = ddAdo with desoxycoformycin 0.05 (unit not given), MT4
[21] = ddAdo with desoxycoformycin 0.5 (unit not given), MT4
[22] = ddAdo with desoxycoformycin 5 (unit not given), MT4
[23] = ddAdo with desoxycoformycin 50 (unit not given), MT4

CCCCCC[C@H]([C@H](C)O)n1cnc2c(N)cccc21 (relative stereo) [1,3-dideaza-EHNA]
CC50 at 96 h ([1]; mt4 cells): 15 µM
MNTC at 96 h ([1]; mt4 cells, MNTD): 5 µM
EC90 (HIV-1 [2]; [4]): > 5 µM

CCCCCC[C@H]([C@H](C)O)n1cnc2c(N)ccnc21 (relative stereo) [1-deaza-EHNA]
CC50 at 96 h ([1]; mt4 cells): 75 µM
MNTC at 96 h ([1]; mt4 cells, MNTD): 20 µM
EC90 (HIV-1 [2]; [4]): 20 µM

CCCCCC[C@H]([C@H](C)O)n1cnc2c(N)nccc21 (relative stereo) [3-deaza-EHNA]
CC50 at 96 h ([1]; mt4 cells): 30 µM
MNTC at 96 h ([1]; mt4 cells, MNTD): 10 µM
EC90 (HIV-1 [2]; [4]): > 10 µM
enhancement of the anti-HIV-1 activity of ddAdo (10 µM) (HIV-1 [2]; MT4 cells): highest enhancing effect

CCCCCC[C@H]([C@H](C)O)n1ccc2c(N)ncnc21 (relative stereo) [7-deaza-EHNA]
CC50 at 96 h ([1]; mt4 cells): 50 µM
MNTC at 96 h ([1]; mt4 cells, MNTD): 5 µM
EC90 (HIV-1 [2]; [4]): > 5 µM

CCCCCC[C@H]([C@H](C)O)n1cnc2c(N)ncnc21 (relative stereo) [EHNA, 9-(erythro-2-hydroxy-3-nonyl) adenine]
CC50 at 96 h ([1]; c8166 cells): 25 µM
MNTC at 96 h ([1]; c8166 cells, MNTD): 15 µM
CC50 at 96 h ([1]; mt4 cells): 35 µM
MNTC at 96 h ([1]; mt4 cells, MNTD): 10 µM
EC90 (HIV-1 [3]; [5]): > 15 µM
lowest concentration enhancing ddAdo anti-HIV activity, relative to its MNTD (HIV-1 [3]; EHNA with ddAdo, C8166): 250 times lower
EC90 (HIV-1 [2]; [4]): > 10 µM
enhancement of the anti-HIV-1 activity of ddAdo (10 µM) (HIV-1 [2]; MT4 cells): highest enhancing effect

OC[C@H]1O[C@@H](n2cnc3c2N=CNC[C@H]3O)[C@H](O)[C@@H]1O [CF, coformycin]
CC50 at 96 h ([1]; c8166 cells): > 250 µM
MNTC at 96 h ([1]; c8166 cells, MNTD): > 250 µM
CC50 at 96 h ([1]; mt4 cells): > 250 µM
MNTC at 96 h ([1]; mt4 cells, MNTD): > 250 µM
MCC at 96 h ([1]; cell line not specified, read-out: cytotoxic concentration): 250 µM
EC90 (HIV-1 [3]; [5]): > 250 µM
lowest concentration enhancing ddAdo anti-HIV activity, relative to its MNTD (HIV-1 [2]; CF with ddAdo, MT4): more than 12500 times lower
EC90 (HIV-1 [2]; [4]): > 250 µM

OC[C@H]1O[C@@H](n2cnc3c2NC=NC[C@H]3O)C[C@@H]1O [dCF, desoxycoformycin]
toxicity (MT4 cells; [6]): non toxic
toxicity (C8166 cells): non toxic
anti-HIV-1 activity (HIV-1 [3]; C8166 cells, concentrations up to 500 µM): without any anti-HIV-1 activity
anti-HIV-1 activity (HIV-1 [2]; [6]): without any anti-HIV-1 activity
lowest concentration enhancing ddAdo anti-HIV activity, relative to its MNTD (HIV-1 [2]; dCF with ddAdo, MT4): more than 10,000 times lower

Nc1ncnc2c1ncn2[C@H]1CC[C@@H](CO)O1 [ddAdo, 2',3'-didesoxyadenosine]
CC50 at 96 h ([1]; c8166 cells): > 1000 µM
MNTC at 96 h ([1]; c8166 cells, MNTD): > 1000 µM
MNTC at 96 h [1, 7]: ≥ 1000 µM
CC50 at 96 h ([1]; mt4 cells): > 1000 µM
MNTC at 96 h ([1]; mt4 cells, MNTD): > 1000 µM
MNTC at 96 h [1, 8]: ≥ 1000 µM
MNTC at 96 h ([1]; mt4 cells, in association with 15 µM of EHNA, Fig. 2, read-out: MNTD of ddAdo): 60 µM
MNTC at 96 h ([1]; mt4 cells, in association with 125 µM of CF, Fig. 3, read-out: MNTD of ddAdo): 60 µM
MNTC (MT4 cells; human, mt4 cells, 96 h): 1 mM
EC90 (HIV-1 [3]; [5]): 25 µM
ED99 (HIV-1 [3]; [9]): 39.0 µM
ED99.9 (HIV-1 [3]; [9]): 61.0 µM
ED99 (HIV-1 [3]; ddAdo with EHNA 0.06 µM, C8166): 30.5 µM
ED99.9 (HIV-1 [3]; ddAdo with EHNA 0.06 µM, C8166): 52.0 µM
EC90 (HIV-1 [3]; ddAdo with EHNA 0.06 µM, C8166): 10.5 µM
ED99 (HIV-1 [3]; ddAdo with EHNA 0.2 µM, C8166): 18.0 µM
ED99.9 (HIV-1 [3]; ddAdo with EHNA 0.2 µM, C8166): 42.5 µM
EC90 (HIV-1 [3]; ddAdo with EHNA 0.2 µM, C8166): 7.5 µM
ED99 (HIV-1 [3]; ddAdo with EHNA 0.5 µM, C8166): 14.5 µM
ED99.9 (HIV-1 [3]; ddAdo with EHNA 0.5 µM, C8166): 34.5 µM
EC90 (HIV-1 [3]; ddAdo with EHNA 0.5 µM, C8166): 6.5 µM
ED99 (HIV-1 [3]; ddAdo with EHNA 1.6 µM, C8166): 11.5 µM
ED99.9 (HIV-1 [3]; ddAdo with EHNA 1.6 µM, C8166): 25.5 µM
EC90 (HIV-1 [3]; ddAdo with EHNA 1.6 µM, C8166): 5 µM
ED99 (HIV-1 [3]; ddAdo with EHNA 5 µM, C8166): 10.0 µM
ED99.9 (HIV-1 [3]; ddAdo with EHNA 5 µM, C8166): 23.5 µM
EC90 (HIV-1 [3]; ddAdo with EHNA 5 µM, C8166): 3.5 µM
ED99 (HIV-1 [3]; ddAdo with EHNA 15 µM, C8166): 7.5 µM
ED99.9 (HIV-1 [3]; ddAdo with EHNA 15 µM, C8166): 17.5 µM
EC90 (HIV-1 [3]; ddAdo with EHNA 15 µM, C8166): 3 µM
EC90 (HIV-1 [2]; [4]): 10 µM
ED99 (HIV-1 [2]; [10]): 19.0 µM
ED99.9 (HIV-1 [2]; [10]): 32.0 µM
EC90 (HIV-1 [2]; [10]): 11 µM
ED99 (HIV-1 [2]; [11]): 14.3 µM
ED99.9 (HIV-1 [2]; [11]): 23.8 µM
EC90 (HIV-1 [2]; [11]): 4.8 µM
EC90 (HIV-1 [2]; ddAdo with Coformycin 0.02 (unit inferred), MT4): 4 µM
ED99 (HIV-1 [2]; [12]): 7.6 µM
ED99.9 (HIV-1 [2]; [12]): 13.7 µM
ED99 (HIV-1 [2]; [13]): 7.1 µM
ED99.9 (HIV-1 [2]; [13]): 12.5 µM
ED99 (HIV-1 [2]; [14]): 5.0 µM
ED99.9 (HIV-1 [2]; [14]): 8.0 µM
EC90 (HIV-1 [2]; ddAdo with Coformycin 0.5 (unit inferred), MT4): 3.6 µM
ED99 (HIV-1 [2]; [15]): 5.0 µM
ED99.9 (HIV-1 [2]; [15]): 8.0 µM
EC90 (HIV-1 [2]; ddAdo with Coformycin 1.6 (unit inferred), MT4): 2.5 µM
ED99 (HIV-1 [2]; [16]): 4.5 µM
ED99.9 (HIV-1 [2]; [16]): 7.5 µM
EC90 (HIV-1 [2]; ddAdo with Coformycin 5 (unit inferred), MT4): 2 µM
ED99 (HIV-1 [2]; [17]): 4.0 µM
ED99.9 (HIV-1 [2]; [17]): 7.5 µM
EC90 (HIV-1 [2]; ddAdo with Coformycin 15 (unit inferred), MT4): 1.5 µM
ED99 (HIV-1 [2]; [18]): 3.5 µM
ED99.9 (HIV-1 [2]; [18]): 7.5 µM
EC90 (HIV-1 [2]; ddAdo with Coformycin 45 (unit inferred), MT4): 1 µM
ED99 (HIV-1 [2]; [19]): 2.5 µM
ED99.9 (HIV-1 [2]; [19]): 7.0 µM
ED99 (HIV-1 [2]; [20]): 8.0 µM
ED99.9 (HIV-1 [2]; [20]): 14.4 µM
EC90 (HIV-1 [2]; ddAdo with desoxycoformycin 0.5 (unit inferred), MT4): 1.3 µM
ED99 (HIV-1 [2]; [21]): 7.8 µM
ED99.9 (HIV-1 [2]; [21]): 14.2 µM
EC90 (HIV-1 [2]; ddAdo with desoxycoformycin 5 (unit inferred), MT4): 1.1 µM
ED99 (HIV-1 [2]; [22]): 6.2 µM
ED99.9 (HIV-1 [2]; [22]): 11.2 µM
EC90 (HIV-1 [2]; ddAdo with desoxycoformycin 50 (unit inferred), MT4): 0.9 µM
ED99 (HIV-1 [2]; [23]): 3.8 µM
ED99.9 (HIV-1 [2]; [23]): 6.7 µM

OC[C@@H]1CC[C@H](n2cnc3c(O)ncnc32)O1 [ddIno, 2',3'-didesoxy-inosine, reference compound]
CC50 at 96 h ([1]; c8166 cells): > 1000 µM
MNTC at 96 h ([1]; c8166 cells, MNTD): > 1000 µM
MNTC at 96 h [1, 7]: ≥ 1000 µM
CC50 at 96 h ([1]; mt4 cells): > 1000 µM
MNTC at 96 h ([1]; mt4 cells, MNTD): > 1000 µM
MNTC at 96 h [1, 8]: ≥ 1000 µM
EC90 (HIV-1 [3]; [5]): 28 µM
EC90 (HIV-1 [2]; [4]): 11 µM
entry into the cells, less efficient than that of ddAdo (human T lymphocytes): 4-6 time
